For this test, the target named is T1, human CARM1 (PRMT4) (Flag- and His-tagged) (Homo sapiens, UniProt Q86X55).
T1 construct: Flag-CARM1-His; made in house; host or cells: HEK 293F cells (BacMam baculovirus)
T1 sequence (Q86X55 1-585 isoform Q86X55-1): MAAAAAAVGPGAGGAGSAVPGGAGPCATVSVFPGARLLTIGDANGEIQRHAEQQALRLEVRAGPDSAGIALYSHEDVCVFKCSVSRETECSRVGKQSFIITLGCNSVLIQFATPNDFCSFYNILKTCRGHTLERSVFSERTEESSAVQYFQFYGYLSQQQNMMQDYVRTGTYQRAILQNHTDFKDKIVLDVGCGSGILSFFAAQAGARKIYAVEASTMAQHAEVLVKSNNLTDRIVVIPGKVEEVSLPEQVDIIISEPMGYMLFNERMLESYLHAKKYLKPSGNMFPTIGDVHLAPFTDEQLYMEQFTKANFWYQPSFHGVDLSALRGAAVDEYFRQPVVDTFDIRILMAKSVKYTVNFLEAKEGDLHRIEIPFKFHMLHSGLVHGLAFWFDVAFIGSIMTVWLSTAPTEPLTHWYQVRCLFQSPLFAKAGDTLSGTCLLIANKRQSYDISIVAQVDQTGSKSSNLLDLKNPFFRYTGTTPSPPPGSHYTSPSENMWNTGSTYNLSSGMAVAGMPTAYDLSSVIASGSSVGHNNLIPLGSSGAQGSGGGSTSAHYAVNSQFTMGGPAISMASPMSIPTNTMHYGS
The experiment in a line: CARM1 Biochemical Assay (3H-SAM Flashplate, peptide substrate). An excerpt: General Materials. S-adenosylmethionine (SAM), S-adenosylhomocysteine (SAH), bicine, Tween20, dimethylsulfoxide (DMSO), bovine skin gelatin (BSG), sodium butyrate and Tris(2-carboxyethyl)phosphine hydrochloride solution (TCEP) were purchased from Sigma-Aldrich at the highest level of purity possible. ^3H-SAM was purchase from American Radiolabeled Chemicals with a specific activity of 80 Ci/mmol. 384-well streptavidin Flashplates were purchased from PerkinElmer.
Substrates. Peptide representative of human histone H3 residues 16-30 was synthesized with an N-terminal linker-affinity tag motif and a C-terminal amide cap by 21st Century Biochemicals. The peptide was purified by high-performance liquid chromatography (HPLC) to greater than 95% purity and confirmed by liquid chromatography mass spectrometry (LC-MS). The sequence was Biot-Ahx-[…]-amide and contained a monomethylated arginine at position 26 (SEQ ID NO.:14).
Molecular Biology: Human CARM1 (PRMT4) (NM_199141.1) transcript clone was amplified from an HEK 293 cDNA library, incorporating a flanking 5′ sequence encoding a FLAG tag ([…]) (SEQ ID NO.:6) fused directly to Ala 2 of CARM1 and 3′ sequence encoding a hexa His sequence ([…]) (SEQ ID NO.:15) fused directly to Ser 608. The gene sequence encoding isoform1 containing a deletion of amino acids 539-561 was amplified subsequently and subcloned into pFastBacMam (Viva Biotech).
Protein Expression. Recombinant baculovirus were generated according to Bac-to-Bac kit instructions (Life Technologies). […] Infections were carried out at 37° C. for 48 hours, harvested by centrifugation, and stored at −80° C. for purification.
Protein Purification. […] Column was washed with 500 mM NaCl in buffer A and Flag-CARM1-His was eluted with 200 ug/ml FLAG peptide in buffer A. Pooled fractions were dialyzed in 20 mM Tris, 150 mM NaCl, 5% glycerol and 1 mM DTT, pH 7.8. The purity of recovered protein was 94.
General Procedure for CARM1 Enzyme Assays on Peptide Substrates. The assays were all performed in a buffer consisting of 20 mM Bicine (pH=7.6), 1 mM TCEP, 0.005% BSG, and 0.002% Tween 20, prepared on the day of use. Compounds in 100% DMSO (1 ul) were spotted into a polypropylene 384-well V-bottom plates (Greiner) using a Platemate Plus outfitted with a 384-channel head (Thermo Scientific). DMSO (1 ul) was added to Columns 11, 12, 23, 24, rows A-H for the maximum signal control and 1 ul of SAH, a known product and inhibitor of CARM1, was added to columns 11, 12, 23, 24, rows I-P for the minimum signal control. A cocktail (40 ul) containing the CARM1 enzyme was added by Multidrop Combi (Thermo-Fisher). The compounds were allowed to incubate with CARM1 for 30 min at room temperature, then a cocktail (10 ul) containing ^3H-SAM and peptide was added to initiate the reaction (final volume=51 ul). The final concentrations of the components were as follows: CARM1 was 0.25 nM, ^3H-SAM was 30 nM, peptide was 250 nM, SAH in the minimum signal control wells was 1 mM, and the DMSO concentration was 2%. The assays were stopped by the addition of non-radiolabeled SAM (10 ul) to a final concentration of 300 uM, which dilutes the ^3H-SAM to a level where its incorporation into the peptide substrate is no longer detectable. 50 ul of the reaction in the 384-well polypropylene plate was then transferred to a 384-well Flashplate and the biotinylated peptides were allowed to bind to the streptavidin surface for at least 1 hour before being washed once with 0.1% Tween20 in a Biotek ELx405 plate washer. The plates were then read in a PerkinElmer TopCount plate reader to measure the quantity of ^3H-labeled peptide bound to the Flashplate surface, measured as disintegrations per minute (dpm) or alternatively, referred to as counts per minute (cpm).
Where dpm=disintegrations per minute, cmpd=signal in assay well, and min and max are the respective minimum and maximum signal controls. […]

SMILES strings stand for the structures. Like-named read-outs stand apart in the source and are kept apart here.

In general, IC50 refers to the concentration at which inhibition is half-maximal. Low readings indicate higher potency, high ones lower potency. Turning to `CN(CCN)Cc1c[nH]nc1CCc1ccccc1` [Compound 9], the IC50 lay in the range of 1.01 to 3 µM. For the setting “single experiment or average of multiple experiments”, this compound yielded a half-maximal inhibitory concentration (IC50) of 3 µM.

Source of the values: patent publication US11512053B2, “Arginine methyltransferase inhibitors and uses thereof” (priority 2013, dated 2022).
